Here are results for three compounds from US4418205A, “16-Amino-18,19,20-trinor-prostaglandin derivatives, and acid addition salts” (priority 1980, dated 1983).

Like-named read-outs stand apart in the source and are kept apart here.

Series [1] has as its system mice being in the 16th to 17th day of their pregnancy. Description: Abortion induction in mice in the 3rd trimestre of pregnancy, subcutaneous. The class given is in vivo. The note with it: pregnant mice; for ED50: Mus musculus, sc, 16th to 17th day, subcutaneous, abortions within 48 hours, obtained by interpolation, read-out: Approx. ED50 (dose inducing abortion in 50 percent of the animals). The method, then:
According to one of the test methods /M. J. K. Harper and R. C. Skarnes: Advances in Biosciences 9, 789 /1973// the test material was administered subcutaneously to mice being in the 16th to 17th day of their pregnancy /3rd trimestre/, then the number of abortions ensuing with 48 hours was registered, as well as the live and dead fetuses following the removal of the uterus, and the scars on the placenta.
(§1) Applying the above methods the dose-response relationship was established at PGF2α, and its methyl ester, as well as the compounds of general formula I of the present invention. The number of animals was 5 per dose.

Series [2] concerns hamsters being in the 4th, 5th, and 6th day of pregnancy. In words: Interruption of early pregnancy in hamsters, subcutaneous. The class given is in vivo, hamster. The note with it: for ED50: Mesocricetus auratus, sc, hamster, 1st trimestre, treated subcutaneously day 4, 5, 6, autopsy day 8, read-out: Approx. ED50. The method, then: (§2) Here hamsters being in the 4th, 5th, and 6th day of pregnancy were treated subcutaneously, and following autopsy on the 8th day, the number of intrauterine embryonal implantations, as well as the condition of the ovaria were investigated /N. S. Crossley: Prostaglandins 10, 5 /1975//. Similarly rats were treated on the 4th, 5th, 6th and 7th day of pregnancy, and killed on the 9th day, and the interruption of pregnancy registered at the autopsy /W. Skuballa et al.: J. Med. Chem. […], 443 /1978//.
as §1
(§3) A similar increase in potency could be observed at the treatment of animals being in the 1st trimestre of their pregnancy.
The 50 fold increase in potency compared to that of PGF2α is especially worth mentioning in the case of hamsters, as this test is suitable for the sensitive detection of the abortive effect of a given compound if it has lutheolytic activity.

Another series has as its system pregnant mice. As to conditions: mouse, in vivo.
Series [3] has as its system rats treated on the 4th, 5th, 6th and 7th day of pregnancy. Description: Interruption of early pregnancy in rats. The class given is in vivo. The note with it: rat, 1st trimestre, treated day 4, 5, 6, 7, killed day 9; read-out: Approx. ED50. The method, then:
as §2, §1, §3

By ED50 is commonly meant the midpoint of the dose-response relation.

`CCCCC[C@H](O)/C=C/[C@@H]1[C@@H](C/C=C\CCCC(=O)O)[C@@H](O)C[C@H]1O` [PGF2α, reference compound]: the ED50 in series [1] was ~16 mg/kg; in series [2], ~0.025 mg/kg; in series [3], ~1 mg/kg. The incidence of diarrhoea result in the series on pregnant mice (10 mg/kg) was “over 50%”.
For the compound `CCCCC[C@H](O)/C=C/[C@@H]1[C@@H](C/C=C\CCCC(=O)OC)[C@@H](O)C[C@H]1O` [PGF2α -methyl ester, reference compound], the median effective dose (ED50) in series [1] was ~10 mg/kg. Moreover, the incidence of diarrhoea entry in the series on pregnant mice (3 mg/kg) was “over 50%”.
Regarding `COC(=O)CCC/C=C\C[C@@H]1[C@@H](/C=C/C(O)[C@@H](N)Cc2ccccc2)[C@H](O)C[C@@H]1O` (single isomer, unassigned) [9α,11α,15/.xi./-Trihydroxy-16/S/-amino-17-phenyl-5-cis,13-trans-18,19,20-trinor-prostadienoic acid methyl ester], the ED50 in series [1] is ~1.2 mg/kg; in series [2], ~0.0005 mg/kg; in series [3] it was ~0.1 mg/kg. Besides, in series [1] (from ED50 values), the “potency compared to PGF2α” value stood at 13 fold. In series [1] (from ED50 values), the “potency compared to PGF2α methyl ester” value turned out to be 8 fold. For the same compound, the “increase in potency compared to that of PGF2α” value in series [2] (hamsters) is 50 fold. The induction of diarrhoea result in the series with pregnant mice (3 mg/kg) is listed as “failed to induce diarrhoea”.
